{"source": "ChEMBL document CHEMBL4831515", "about": "(J Med Chem, 2021)", "key": {"[1]": {"assay": "Stability in human liver microsomes assessed as compound remaining preincubated for 10 mins followed by phosphate buffer addition and incubated for 1 hr and subsequent addition of NADPH regenerating system and measured after 60 mins by LC-MS/MS analysis", "format": "ADME, Microsome", "conditions": "time 190 min, read-out: Stability"}, "[2]": {"assay": "Half life in human liver microsomes preincubated for 10 mins followed by phosphate buffer addition and incubated for 1 hr and subsequent addition of NADPH regenerating system and measured after 2 hrs by LC-MS/MS analysis"}, "in vitro": {"assay": "in vitro", "conditions": "human, liver microsomes"}, "[3]": {"assay": "Acute toxicity in ig dosed Kunming mouse measured every day for 7 days", "format": "organism-based", "conditions": "in vivo, po, time 7 day"}, "[4]": {"assay": "Cmax in Sprague-Dawley rat at 2 mg/kg, iv measured after 5 to 600 mins by LC-MS/MS analysis", "format": "ADME, organism-based", "parameters": "route intravenous, time lower 5 min, dose 2 mg/kg, time upper 600 min", "conditions": "in vivo"}, "[5]": {"assay": "Half life in Sprague-Dawley rat at 20 mg/kg, po measured after 15 to 720 mins by LC-MS/MS analysis", "format": "ADME, organism-based", "conditions": "in vivo, time 15-720 min"}, "[6]": {"assay": "Volume of distribution in Sprague-Dawley rat at 2 mg/kg, iv measured after 5 to 600 mins by LC-MS/MS analysis", "format": "ADME, organism-based", "conditions": "in vivo, time 5-600 min"}, "[7]": {"assay": "AUC(0 to infinity) in Sprague-Dawley rat at 2 mg/kg, iv measured after 5 to 600 mins by LC-MS/MS analysis", "format": "ADME, organism-based", "parameters": "route intravenous, time 5-600 min, dose 2 mg/kg", "conditions": "in vivo"}, "[8]": {"assay": "Acute toxicity in Kunming mouse assessed as mortality at 1000 mg/kg, ig measured every day for 7 days", "format": "organism-based", "conditions": "in vivo, po, 168 h, time 7 day"}, "[9]": {"assay": "AUC(0 to last) in Sprague-Dawley rat at 2 mg/kg, iv measured after 5 to 600 mins by LC-MS/MS analysis", "format": "ADME, organism-based", "parameters": "route intravenous, dose 2 mg/kg, time upper 600 min, time lower 5 min", "conditions": "in vivo"}, "[10]": {"system": "Human immunodeficiency virus 1", "assay": "Antiviral activity against HIV1 harboring K103N mutant infected in human MT4 cells assessed as reduction in virus-induced cytopathogenic effect by MTT assay", "format": "functional, organism-based", "conditions": "Human immunodeficiency virus 1, MT4"}, "[11]": {"assay": "MRT (0 to infinity) in Sprague-Dawley rat at 2 mg/kg, iv measured after 5 to 600 mins by LC-MS/MS analysis", "format": "ADME, organism-based", "conditions": "in vivo, time 5-600 min"}, "[12]": {"target": "Human immunodeficiency virus type 1 reverse transcriptase (Human immunodeficiency virus 1, UniProt Q72547)", "assay": "Inhibition of wild type HIV1 reverse transcriptase assessed as reduction in biotin-dUTP incorporation into […] incubated for 1 hrs by ELISA"}, "[13]": {"system": "Human immunodeficiency virus 1", "conditions": "Human immunodeficiency virus 1, MT4"}, "[14]": {"assay": "Tmax in Sprague-Dawley rat at 20 mg/kg, po measured after 15 to 720 mins by LC-MS/MS analysis", "format": "ADME, organism-based", "conditions": "in vivo, time 15-720 min"}, "[15]": {"assay": "Acute toxicity in Kunming mouse assessed as effect on body weight at 1000 mg/kg, ig measured every day for 7 days", "format": "organism-based", "conditions": "in vivo, po, 168 h, time 7 day"}, "[16]": {"system": "Human immunodeficiency virus 1", "assay": "Antiviral activity against HIV1 3B infected in human MT4 cells assessed as reduction in virus-induced cytopathogenic effect by MTT assay", "conditions": "Human immunodeficiency virus 1, 3B"}, "[17]": {"system": "Human immunodeficiency virus 1", "assay": "Antiviral activity against wild type HIV1 harboring Y188L mutant infected in human MT4 cells assessed as reduction in virus-induced cytopathogenic effect by MTT assay", "conditions": "Human immunodeficiency virus 1, MT4"}, "[18]": {"assay": "Acute toxicity in Kunming mouse assessed as effect on growth at 1000 mg/kg, ig measured every day for 7 days", "format": "organism-based", "conditions": "in vivo, po, 168 h, time 7 day"}, "[19]": {"assay": "Tmax in Sprague-Dawley rat at 2 mg/kg, iv measured after 5 to 600 mins by LC-MS/MS analysis", "format": "ADME, organism-based", "conditions": "in vivo, time 5-600 min"}, "[20]": {"system": "Human immunodeficiency virus 1", "assay": "Antiviral activity against wild type HIV1 harboring Y181C mutant infected in human MT4 cells assessed as reduction in virus-induced cytopathogenic effect by MTT assay", "conditions": "Human immunodeficiency virus 1, MT4"}, "[21]": {"assay": "MRT (0 to infinity) in Sprague-Dawley rat at 20 mg/kg, po measured after 15 to 720 mins by LC-MS/MS analysis", "format": "ADME, organism-based", "conditions": "in vivo, time 15-720 min"}, "[22]": {"assay": "Clearance in Sprague-Dawley rat at 2 mg/kg, iv measured after 5 to 600 mins by LC-MS/MS analysis", "format": "ADME, organism-based", "conditions": "in vivo, time 5-600 min"}, "[23]": {"assay": "AUC (0 to last) in Sprague-Dawley rat at 20 mg/kg, po measured after 15 to 720 mins by LC-MS/MS analysis", "format": "ADME, organism-based", "parameters": "route oral, time lower 15 min, dose 20 mg/kg, time upper 720 min", "conditions": "in vivo"}, "[24]": {"system": "Human immunodeficiency virus 1", "assay": "Antiviral activity against HIV1 RES056 infected in human MT4 cells assessed as reduction in virus-induced cytopathogenic effect by MTT assay", "conditions": "Human immunodeficiency virus 1, RES056, MT4"}, "[25]": {"assay": "Acute toxicity in Kunming mouse assessed as induction of poisoning at 1000 mg/kg, ig measured every day for 7 days", "format": "organism-based", "conditions": "in vivo, po, 168 h, time 7 day"}, "[26]": {"system": "Human immunodeficiency virus 1", "assay": "Antiviral activity against HIV1 harboring L100I mutant infected in human MT4 cells assessed as reduction in virus-induced cytopathogenic effect by MTT assay", "conditions": "Human immunodeficiency virus 1, MT4"}, "[27]": {"assay": "Half life in Sprague-Dawley rat at 2 mg/kg, iv measured after 5 to 600 mins by LC-MS/MS analysis", "format": "ADME, organism-based", "conditions": "in vivo, time 5-600 min"}, "[28]": {"assay": "Cytotoxicity against human MT4 cells assessed as reduction in cell viability by MTT assay"}, "[29]": {"system": "Human immunodeficiency virus 2", "assay": "Antiviral activity against wild type HIV2 ROD infected in human MT4 cells assessed as reduction in virus-induced cytopathogenic effect by MTT assay", "conditions": "Human immunodeficiency virus 2, ROD"}, "[30]": {"system": "Human immunodeficiency virus 1", "assay": "Antiviral activity against HIV1 harboring F227L/V106A mutant infected in human MT4 cells assessed as reduction in virus-induced cytopathogenic effect by MTT assay", "format": "functional, organism-based", "conditions": "Human immunodeficiency virus 1, MT4"}, "[31]": {"assay": "AUC (0 to infinity) in Sprague-Dawley rat at 20 mg/kg, po measured after 15 to 720 mins by LC-MS/MS analysis", "format": "ADME, organism-based", "parameters": "route oral, time lower 15 min, dose 20 mg/kg, time upper 720 min", "conditions": "in vivo"}, "[32]": {"assay": "Cmax in Sprague-Dawley rat at 20 mg/kg, po measured after 15 to 720 mins by LC-MS/MS analysis", "format": "ADME, organism-based", "parameters": "route oral, dose 20 mg/kg, time 15-720 min", "conditions": "in vivo"}, "[33]": {"assay": "Solubility in phosphate buffer at pH7", "conditions": "pH 7"}}}
{"molecule": "Cc1cc(/C=C/C#N)cc(C)c1Oc1nc(NC2CCN(Cc3ccc(S(N)(=O)=O)cc3)CC2)nc2ccsc12", "values": [{"measurement": "remaining at 1 h", "setting": "[1]", "value": 0.2, "unit": "%"}, {"measurement": "half-life at 2 h", "setting": "[2]", "value": 1.6, "unit": "min"}, {"measurement": "microsomal CLint at 2 h", "setting": "in vitro", "value": 847, "unit": "µL/min/mg"}]}
{"molecule": "Cc1cc(/C=C/C#N)cc(C)c1Oc1nc(Nc2ccc(C#N)cc2)nc2c1CSCC2", "values": [{"measurement": "LD50 at 168 h", "setting": "[3]", "value": "> 1000", "unit": "mg/kg"}, {"measurement": "Cmax", "setting": "[4]", "value": 8880, "unit": "ng/mL"}, {"measurement": "remaining at 1 h", "setting": "[1]", "value": 0.3, "unit": "%"}, {"measurement": "half-life", "setting": "[5]", "value": 121, "unit": "min"}, {"measurement": "Vd", "setting": "[6]", "value": 0.702, "unit": "L/kg"}, {"measurement": "AUC(0-inf)", "setting": "[7]", "value": 1510, "unit": "ng·h/mL"}, {"measurement": "Activity", "setting": "[8]", "value": "Non-Toxic"}, {"measurement": "AUC(0-t)", "setting": "[9]", "value": 1510, "unit": "ng·h/mL"}, {"measurement": "EC50", "setting": "[10]", "value": 4.44, "unit": "nM"}, {"measurement": "MRT inf", "setting": "[11]", "value": 30, "unit": "min"}, {"measurement": "IC50", "setting": "[12]", "value": 81, "unit": "nM"}, {"measurement": "EC50", "setting": "[13]", "value": 9.78, "unit": "nM"}, {"measurement": "Tmax", "setting": "[14]", "value": 15, "unit": "min"}, {"measurement": "Activity", "setting": "[15]", "value": "Non-Toxic"}, {"measurement": "EC50", "setting": "[16]", "value": 9.67, "unit": "nM"}, {"measurement": "EC50", "setting": "[17]", "value": 54.5, "unit": "nM"}, {"measurement": "Activity", "setting": "[18]", "value": "Non-Toxic"}, {"measurement": "half-life at 2 h", "setting": "[2]", "value": 7.4, "unit": "min"}, {"measurement": "Tmax", "setting": "[19]", "value": 4.98, "unit": "min"}, {"measurement": "EC50", "setting": "[20]", "value": 14.9, "unit": "nM"}, {"measurement": "MRT inf", "setting": "[21]", "value": 174, "unit": "min"}, {"measurement": "clearance", "setting": "[22]", "value": 23, "unit": "mL/min/kg"}, {"measurement": "AUC(0-t)", "setting": "[23]", "value": 19.5, "unit": "ng·h/mL"}, {"measurement": "EC50", "setting": "[24]", "value": 47.8, "unit": "nM"}, {"measurement": "Activity", "setting": "[25]", "value": "Non-Toxic"}, {"measurement": "EC50", "setting": "[26]", "value": 4.44, "unit": "nM"}, {"measurement": "half-life", "setting": "[27]", "value": 116, "unit": "min"}, {"measurement": "CC50", "setting": "[28]", "value": 284000, "unit": "nM"}, {"measurement": "EC50", "setting": "[29]", "value": "> 284000", "unit": "nM"}, {"measurement": "EC50", "setting": "[30]", "value": 42.9, "unit": "nM"}, {"measurement": "AUC(0-inf)", "setting": "[31]", "value": 24, "unit": "ng·h/mL"}, {"measurement": "microsomal CLint at 2 h", "setting": "in vitro", "value": 188, "unit": "µL/min/mg"}, {"measurement": "Cmax", "setting": "[32]", "value": 16.6, "unit": "ng/mL"}]}
{"molecule": "Cc1cc(C#N)cc(C)c1Oc1nc(Nc2ccc(C#N)cc2)nc(N)c1Br", "note": "[ETRAVIRINE]", "values": [{"measurement": "EC50", "setting": "[10]", "value": 3.14, "unit": "nM"}, {"measurement": "EC50", "setting": "[13]", "value": 8.08, "unit": "nM"}, {"measurement": "EC50", "setting": "[16]", "value": 5.03, "unit": "nM"}, {"measurement": "EC50", "setting": "[24]", "value": 42.5, "unit": "nM"}, {"measurement": "EC50", "setting": "[26]", "value": 6.36, "unit": "nM"}, {"measurement": "CC50", "setting": "[28]", "value": "> 4590", "unit": "nM"}, {"measurement": "EC50", "setting": "[29]", "value": "> 4590", "unit": "nM"}, {"measurement": "EC50", "setting": "[30]", "value": 14.3, "unit": "nM"}, {"measurement": "solubility", "setting": "[33]", "value": "< 1", "unit": "µg/mL"}]}
